One series deals with UBE2M mutant KBM7 cells. Briefly: cells. It counts as cell-based. How it is done: KBM7 cells with the specified genetic backgrounds were grown in IMDM supplemented with 10% FBS and 1% penicillin/streptomycin (pen/strep). AsPC1, HCT116, NCI-H446 and 293T cells were grown in DMEM 10% FBS and 1% pen/strep. MV4; 11, Jurkat and Be (2) C cells were grown in RPMI 10% FBS 1% pen/strep. KBM7, AsPC1 and HCT116 cells expressing Cas9 were generated using the plasmid Lenti_Cas9_Blasti (Addgene #52962). The lentiviral plasmid lentiGuide-Puro (Addgene #52963) was used to express sgRNAs against the genes UBE2M (in KBM7-Cas9, AsPC1-Cas9 and HCT116-Cas9 cells), UBE2G1 (in KBM7-Cas9 cells) and […] (in KBM7-Cas9 cells). The lentiviral plasmid lentiGuide-Puro-IRES-mCherry (modified from Addgene #52963) was used to express sgRNAs against CUL4A (in KBM7-Cas9 cells). The lentiviral plasmid pLenti-PGK-Hygro-DEST-UBE2M was generated by Gateway cloning (empty destination vector Addgene #19066), and used to generate UBE2M^resc KBM7 cells. […]
Following this observation, it was rationalized that novel small molecule degraders can be identified in an unbiased manner, simply by searching for compounds that lose activity in the absence of UBE2M. 2000 small molecules, mostly of unknown function/target, were tested for their antiproliferative effects in human leukemia cells (KBM7). These cells were either transduced with a control sgRNA (KBM7WT), or with an sgRNA targeting UBE2M, leading to a hypomorph (deletion of six amino acids) with a functional impairment (UBE2Mmut).
Finally, a total of structurally similar analogs was tested to unravel structure-activity relationship of the identified molecules. To that end, their anti-cancer activity was assayed in WT cells, as well as KBM7 cells deficient in genes identified in the genome-wide CRISPR screens (UBE2M, CUL4B, UBE2G1). Moreover, the compounds were also tested in AsPC1 pancreatic cancer cells (WT or UBE2Mmut), MV4; 11 and Jurkat leukemia cells, Be (2) C neuroblastoma cells, and NCI-H446 lung cancer cells (Table 3 at the end of this document)
(§1) KBM7^WT, mutant KBM7 clones (UBE2M^mut, UBE2M^resc, UBE2G1^mut CUL4A^mut, CUL4B^mut), and 3-day doxycycline pretreated KBM7^iCas9_sgDDB1 cells were seeded at a cell density of 50,000 cells/mL in 96-well plates with DMSO or drug, in triplicates. Drugs used: IC020772.1/IC020772.1X, IC021313.2/IC021313.2X, T6938051/T6938051X or THZ531. Cells were treated for 3 days, after which cell viability was assessed according to manufacturer's protocol (CellTiter Glo, Promega G7570). Survival curves and EC50 values were calculated by best-fit analysis of the log 10 drug concentration to fold change of drug-treated cells over DMSO-treated cells. All survival assays included technical triplicates per sample, per experiment.

For another series, the system named is UBE2Mresc KBM7 cells. Briefly: Cell viability assay, KBM7 UBE2M rescue (UBE2M cDNA re-introduced). Format: cell-based, human. To be noted: Table 1, data of FIG. 4; 3-day treatment; read-out: LC50 UBE2Mresc. How it is done: KBM7 cells with the specified genetic backgrounds were grown in IMDM supplemented with 10% FBS and 1% penicillin/streptomycin (pen/strep). AsPC1, HCT116, NCI-H446 and 293T cells were grown in DMEM 10% FBS and 1% pen/strep. MV4; 11, Jurkat and Be (2) C cells were grown in RPMI 10% FBS 1% pen/strep. KBM7, AsPC1 and HCT116 cells expressing Cas9 were generated using the plasmid Lenti_Cas9_Blasti (Addgene #52962). The lentiviral plasmid lentiGuide-Puro (Addgene #52963) was used to express sgRNAs against the genes UBE2M (in KBM7-Cas9, AsPC1-Cas9 and HCT116-Cas9 cells), UBE2G1 (in KBM7-Cas9 cells) and […] (in KBM7-Cas9 cells). The lentiviral plasmid lentiGuide-Puro-IRES-mCherry (modified from Addgene #52963) was used to express sgRNAs against CUL4A (in KBM7-Cas9 cells). The lentiviral plasmid pLenti-PGK-Hygro-DEST-UBE2M was generated by Gateway cloning (empty destination vector Addgene #19066), and used to generate UBE2M^resc KBM7 cells.
Indeed, >20 compounds were identified that fulfilled this criteria. […] The initial screening assay was conducted at two concentrations (10 μM and 500 nM). The dose ranging differential effect of these four hits was assessed/validated, comparing their activity in KBM7WT vs UBE2MMUT cells. […] A genetic rescue experiment, where UBE2M cDNA was re-introduced into the UBE2Mmut clone (UBE2Mresc), did (at least partically) reconstitute the initial sensitivity to the assessed compounds (FIG. 4, Table 1).
as §1, with “All survival assays included technical triplicates per sample, per experiment.” left out

Series [1] deals with T1, CDK12/13 (Homo sapiens, UniProt Q14004).
T1 construct: endogenous in cells; host or cells: KBM7 cells
T1 sequence (O75909 whole entry): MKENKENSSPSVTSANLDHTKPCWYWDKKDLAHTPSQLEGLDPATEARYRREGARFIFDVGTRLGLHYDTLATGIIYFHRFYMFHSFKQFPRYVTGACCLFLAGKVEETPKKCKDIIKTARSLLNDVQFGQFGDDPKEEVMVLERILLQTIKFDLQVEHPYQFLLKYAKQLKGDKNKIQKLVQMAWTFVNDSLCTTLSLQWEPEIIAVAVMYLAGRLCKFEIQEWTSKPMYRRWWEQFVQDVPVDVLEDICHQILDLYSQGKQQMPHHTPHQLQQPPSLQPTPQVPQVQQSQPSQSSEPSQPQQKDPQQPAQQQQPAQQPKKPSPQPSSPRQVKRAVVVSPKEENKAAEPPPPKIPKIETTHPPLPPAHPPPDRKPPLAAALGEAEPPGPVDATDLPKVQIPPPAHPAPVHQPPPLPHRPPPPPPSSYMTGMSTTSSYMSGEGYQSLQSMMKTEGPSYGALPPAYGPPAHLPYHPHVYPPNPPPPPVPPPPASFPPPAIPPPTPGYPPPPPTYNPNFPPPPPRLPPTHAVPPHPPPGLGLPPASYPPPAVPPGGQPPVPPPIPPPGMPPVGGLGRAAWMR
T1 sequence (Q16531 whole entry, further chain): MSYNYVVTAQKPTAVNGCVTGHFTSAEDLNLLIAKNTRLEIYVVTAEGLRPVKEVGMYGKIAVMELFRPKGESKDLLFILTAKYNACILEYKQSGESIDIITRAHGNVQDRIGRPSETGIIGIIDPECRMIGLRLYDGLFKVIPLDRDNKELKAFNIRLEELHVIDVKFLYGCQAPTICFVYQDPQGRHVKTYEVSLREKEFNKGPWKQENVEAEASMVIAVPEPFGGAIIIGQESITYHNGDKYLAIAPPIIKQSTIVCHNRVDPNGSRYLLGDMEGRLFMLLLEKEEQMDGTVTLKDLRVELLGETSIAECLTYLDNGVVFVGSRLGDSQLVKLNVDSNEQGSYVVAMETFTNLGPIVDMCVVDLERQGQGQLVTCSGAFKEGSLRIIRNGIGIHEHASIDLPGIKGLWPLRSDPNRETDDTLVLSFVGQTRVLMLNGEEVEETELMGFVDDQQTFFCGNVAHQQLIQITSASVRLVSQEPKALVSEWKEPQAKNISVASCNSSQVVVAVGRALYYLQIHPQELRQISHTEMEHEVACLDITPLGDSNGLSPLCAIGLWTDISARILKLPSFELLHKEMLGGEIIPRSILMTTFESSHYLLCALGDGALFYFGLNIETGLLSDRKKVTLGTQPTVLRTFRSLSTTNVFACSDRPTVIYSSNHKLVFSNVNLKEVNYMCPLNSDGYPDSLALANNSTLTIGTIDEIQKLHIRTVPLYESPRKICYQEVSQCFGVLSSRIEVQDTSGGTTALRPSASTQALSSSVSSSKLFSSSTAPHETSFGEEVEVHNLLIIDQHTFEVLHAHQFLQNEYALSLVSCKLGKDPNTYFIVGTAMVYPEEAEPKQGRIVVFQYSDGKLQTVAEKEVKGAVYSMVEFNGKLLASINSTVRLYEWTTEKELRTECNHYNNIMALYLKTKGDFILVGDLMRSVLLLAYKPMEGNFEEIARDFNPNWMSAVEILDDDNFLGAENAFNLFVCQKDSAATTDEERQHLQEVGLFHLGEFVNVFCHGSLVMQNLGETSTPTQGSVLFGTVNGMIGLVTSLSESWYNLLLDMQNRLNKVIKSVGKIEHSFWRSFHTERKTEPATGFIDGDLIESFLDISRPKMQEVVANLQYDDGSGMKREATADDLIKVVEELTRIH
T1 sequence (Q14004 other isoform, or with tags, fused parts or gaps): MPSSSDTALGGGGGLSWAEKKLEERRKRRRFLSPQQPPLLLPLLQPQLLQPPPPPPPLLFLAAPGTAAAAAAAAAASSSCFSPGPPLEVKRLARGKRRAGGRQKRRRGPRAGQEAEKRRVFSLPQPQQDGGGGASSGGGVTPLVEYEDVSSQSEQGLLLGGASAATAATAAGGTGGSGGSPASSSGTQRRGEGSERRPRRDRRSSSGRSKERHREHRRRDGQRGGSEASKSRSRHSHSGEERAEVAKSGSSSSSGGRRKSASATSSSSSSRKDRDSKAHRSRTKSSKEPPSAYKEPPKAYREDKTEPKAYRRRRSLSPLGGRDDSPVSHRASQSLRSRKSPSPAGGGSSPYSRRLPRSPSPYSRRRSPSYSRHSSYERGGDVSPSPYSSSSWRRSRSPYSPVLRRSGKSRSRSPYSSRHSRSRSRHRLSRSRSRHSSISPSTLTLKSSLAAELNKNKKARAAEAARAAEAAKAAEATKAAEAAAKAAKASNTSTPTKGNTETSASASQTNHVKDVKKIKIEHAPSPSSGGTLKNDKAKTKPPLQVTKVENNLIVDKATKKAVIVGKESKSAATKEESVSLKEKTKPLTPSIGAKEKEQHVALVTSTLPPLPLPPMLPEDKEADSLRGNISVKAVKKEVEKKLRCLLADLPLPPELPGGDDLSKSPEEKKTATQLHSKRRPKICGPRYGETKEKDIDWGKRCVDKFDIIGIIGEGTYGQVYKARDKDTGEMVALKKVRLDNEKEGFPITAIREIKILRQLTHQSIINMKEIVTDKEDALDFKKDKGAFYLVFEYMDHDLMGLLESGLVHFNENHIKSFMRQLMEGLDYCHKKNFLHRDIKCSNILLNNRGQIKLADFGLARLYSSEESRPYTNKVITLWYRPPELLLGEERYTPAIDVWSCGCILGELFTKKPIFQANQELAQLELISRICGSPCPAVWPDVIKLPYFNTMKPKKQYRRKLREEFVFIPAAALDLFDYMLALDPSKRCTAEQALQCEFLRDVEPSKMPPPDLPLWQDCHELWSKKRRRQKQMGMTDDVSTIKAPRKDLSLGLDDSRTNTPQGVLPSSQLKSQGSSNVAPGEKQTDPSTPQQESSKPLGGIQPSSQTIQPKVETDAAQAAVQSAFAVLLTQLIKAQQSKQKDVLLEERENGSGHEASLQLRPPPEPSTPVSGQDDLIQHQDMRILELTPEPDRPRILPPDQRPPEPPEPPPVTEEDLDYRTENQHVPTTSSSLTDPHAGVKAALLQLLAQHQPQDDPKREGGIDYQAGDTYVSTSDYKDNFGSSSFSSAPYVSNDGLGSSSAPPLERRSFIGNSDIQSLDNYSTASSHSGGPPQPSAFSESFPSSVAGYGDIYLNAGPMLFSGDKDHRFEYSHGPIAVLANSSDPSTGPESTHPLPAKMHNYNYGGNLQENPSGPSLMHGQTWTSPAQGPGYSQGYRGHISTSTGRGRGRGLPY
Briefly: CDK12/13 destabilization (expression proteomics and Western blot). It counts as cell-based. To be noted: expression proteomics, drug vs DMSO; Table 4, log2FC < −0.3. The protocol:
(§2) The hypomorphic phenotype of the mutated UBE2M allele in KBM7 cells (KBM7 UBE2M^mut cells) was assessed. In this regard, CRISPR/Cas9-induced mutation of UBE2M inactivated CRL activity including CRL4^CRBN and CRL2^VHL. […] Additionally, CCNK destabilization by all three compounds was validated via time-resolved immunoblots wherein CCNK degradation was evident after two hours (FIG. 19c).
(§3) PBS-washed cell pellets were lysed in 50 mM Tris pH 7.9, 8M Urea and 1% CHAPS and incubated with shaking at 4° C. for at least 30 min. 20 μg of supernatants were run and transferred for detection. Antibodies used: CUL1 (Santa Cruz Biotechnology, sc-1276), CUL2 (Sigma-Aldrich, SAB2501565-100), CUL3 (Cell Signaling Technology, 2759), CUL4A (Cell Signaling Technology, 2699S), CUL4B (Proteintech, 12916-1-AP), CUL5 (Santa Cruz Biotechnology, sc-373822), UBE2M (Santa Cruz Biotechnology, sc-390064), DDB1 (Cell Signaling Technology, 5428S), CCNK (Bethyl, A301-939A), CDK12 (Cell Signaling Technology, 11973S), CDK13 (Bethyl, A301-458A), RBM39 (1:500, Santa Cruz Biotechnology sc-376531), V5 (Cell Signaling Technology, 13202), Ubiquityl-Histone H2A (K119) (Cell Signaling, 8240-20). ACTIN (Sigma-Aldrich, A5441), VINCUL1N (Santa Cruz Biotechnology, sc-25336). Secondary antibodies anti-mouse/rabbit/goat (Jackson ImmunoResearch 115-035-003, 111-035-003 and 705-035-003).
(§4) Comparison of overall proteome-wide changes in KBM7 cells treated with IC020772.1 (2.5 μM), IC021313.2 (7 μM) or T6938051 (3.5 μM) for 5 h and 12h, using quantitative proteomics based on isobaric tagging.
On the technique in general: Immunoblotting shows a protein as a band on a membrane.

The target in series [2] is T2, CDK12/13 (Homo sapiens, UniProt Q9NYV4).
T2 construct: endogenous in cells; host or cells: KBM7 cells
T2 sequence (Q9NYV4 whole entry): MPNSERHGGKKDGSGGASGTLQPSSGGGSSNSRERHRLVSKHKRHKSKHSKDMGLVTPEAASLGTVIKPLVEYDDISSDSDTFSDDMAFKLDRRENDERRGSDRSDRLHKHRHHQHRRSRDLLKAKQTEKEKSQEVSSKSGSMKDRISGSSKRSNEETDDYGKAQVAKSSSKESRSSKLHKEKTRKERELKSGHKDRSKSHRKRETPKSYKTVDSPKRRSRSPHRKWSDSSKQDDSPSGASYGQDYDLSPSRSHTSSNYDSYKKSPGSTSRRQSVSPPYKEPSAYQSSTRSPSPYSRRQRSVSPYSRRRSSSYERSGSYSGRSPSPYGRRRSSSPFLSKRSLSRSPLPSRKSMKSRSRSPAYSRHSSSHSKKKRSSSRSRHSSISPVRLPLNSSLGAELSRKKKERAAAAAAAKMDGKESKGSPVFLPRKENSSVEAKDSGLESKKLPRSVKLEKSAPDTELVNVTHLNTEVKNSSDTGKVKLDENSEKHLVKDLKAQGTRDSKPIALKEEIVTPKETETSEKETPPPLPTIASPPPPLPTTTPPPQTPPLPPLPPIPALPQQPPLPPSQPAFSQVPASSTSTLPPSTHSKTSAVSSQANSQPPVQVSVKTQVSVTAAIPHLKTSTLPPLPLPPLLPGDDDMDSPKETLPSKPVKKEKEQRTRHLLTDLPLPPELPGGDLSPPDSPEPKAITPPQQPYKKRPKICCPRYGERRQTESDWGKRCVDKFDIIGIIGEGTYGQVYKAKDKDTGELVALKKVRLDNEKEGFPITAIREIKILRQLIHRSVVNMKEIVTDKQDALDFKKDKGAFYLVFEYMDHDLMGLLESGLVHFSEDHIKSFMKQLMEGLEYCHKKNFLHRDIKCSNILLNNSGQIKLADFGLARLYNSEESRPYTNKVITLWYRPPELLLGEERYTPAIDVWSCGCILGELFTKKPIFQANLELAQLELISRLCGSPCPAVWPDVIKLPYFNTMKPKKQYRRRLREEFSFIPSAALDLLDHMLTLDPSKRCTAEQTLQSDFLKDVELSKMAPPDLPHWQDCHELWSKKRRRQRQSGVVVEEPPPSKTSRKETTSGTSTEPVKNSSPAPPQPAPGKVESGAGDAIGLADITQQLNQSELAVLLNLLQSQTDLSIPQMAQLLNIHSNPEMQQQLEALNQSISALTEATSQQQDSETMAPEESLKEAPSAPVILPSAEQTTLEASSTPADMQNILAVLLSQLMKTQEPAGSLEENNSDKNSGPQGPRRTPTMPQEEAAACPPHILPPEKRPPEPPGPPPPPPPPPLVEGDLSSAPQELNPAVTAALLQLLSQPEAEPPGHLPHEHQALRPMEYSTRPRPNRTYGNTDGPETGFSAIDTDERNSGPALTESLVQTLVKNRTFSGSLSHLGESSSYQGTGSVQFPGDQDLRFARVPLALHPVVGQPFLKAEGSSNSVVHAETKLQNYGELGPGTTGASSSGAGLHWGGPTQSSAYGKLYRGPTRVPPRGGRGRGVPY
T2 sequence (O75909 whole entry partner): as the sequence (O75909 whole entry) above
T2 sequence (Q16531 whole entry partner): as the sequence (Q16531 whole entry, further chain) above
The series is described as above. It counts as cell-based. How it is done: as §2, §3, §4

These results are taken from patent US12410152B2, “Oxazole and thioazole-type cullin ring ubiquitin ligase compounds and uses thereof” (Proxygen GmbH, priority 2019, dated 2025).

On to `O=C(CSc1nc2ccccc2[nH]1)Nc1ccc(Cl)cn1` [IC021313.2], for which the CC50 with UBE2M mutant KBM7 cells is 10.7 µM; with UBE2Mresc KBM7 cells, 1.94 µM. For the same compound, at CDK12/13 [1], the “logFC (IC021313.2/DMSO), CDK13 (Q14004-2)” value is −0.6574. Besides, the “logFC (IC021313.2/DMSO), CDK12 (Q9NYV4-1)” value at CDK12/13 [2] (expression proteomics, drug vs DMSO, Table 4, log2FC < −0.3) is reported as −0.897.

`Cc1ccc(C(=O)N2CSCC2C(=O)N=c2[nH]cc(C)s2)o1` (stereo not drawn) [Compound T6938051]: the values for the CC50 in the series on UBE2M mutant KBM7 cells and in the series on UBE2Mresc KBM7 cells were 7.04 µM and 1.15 µM, respectively.

Turning to `O=C(CSc1nnc2c(n1)[nH]c1ccccc12)Nc1ccc(Cl)cn1` [IC020772.1], the figures for the CC50 in the series on UBE2M mutant KBM7 cells and in the series with UBE2Mresc KBM7 cells were 4.15 µM and 0.75 µM, respectively. Further, on CDK12/13 [2] (CDK12 (Q9NYV4-1)), the “log2FC (IC020772.1/DMSO)” value was −1.171.
